Data set [1] has as its system P-IKKα levels in L363 (NIK translocated multiple myeloma) cells. The data set can be described thus: Effect of compounds on P-IKKα levels in L363 cells (Mesoscale sandwich immuno-assay), Biological Assay B. Format: cell-based, human. To be noted: Homo sapiens, L-363, 2 h, 2 hr treatment, averaged values, read-out: Inhibition of pIKKα_L-363 (IC50 (nM)). The method, boiled down:
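P-IKKα in lysates quantified by Mesoscale sandwich immunoassay after 2 h compound exposure in 1% DMSO, duplicate wells, 8-point 1:3 series. Human L363 cells had been preincubated 24 h with BAFF (1 μg/ml stock). Blank (10 μM ADS125117) subtracted; IC50 fitted sigmoidally to % inhibition of control.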

For data set [2], the system named is JJN-3 (NIK translocated) multiple myeloma cells. Briefly: Antiproliferative activity on JJN-3 multiple myeloma cells (CellTiter-Glo, 96 hr), Biological Assay C. Format: cell-based, human. To be noted: Homo sapiens, JJN-3, 96 h, JJN-3 (NIK translocated) cells, averaged values, read-out: JJN-3 Proliferation inhibition (IC50 (nM)). The method, boiled down:
(§1)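 Growth read-out was CellTiter-Glo luminescence after 96 h compound exposure, given as percent of no-drug control after subtracting a blank of cells read at dosing. Compounds ran as 9-point serial 1:3 dilutions in 0.3% DMSO, duplicate wells, on JJN-3 (15000/well) or KMS12-BM (20000/well) cells in RPMI 1640/10% FCS.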

Data set [3] has as its target recombinant human NF-kappaB-inducing kinase (NIK/MAP3K14) (Homo sapiens, UniProt Q99558). Briefly: Inhibition of auto-phosphorylation of recombinant human NIK/MAP3K14 activity (AlphaScreen), Biological Assay A. Format: biochemical. To be noted: averaged values over all measurements on all batches. The method, boiled down: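 AlphaScreen detection with anti-phospho-IKK Ser176/180 antibody plus Protein A acceptor/glutathione donor beads after 1 h, 25 °C reaction of 0.2 nM GST-tagged kinase, 25 μM ATP and compound. Buffer: 50 mM Tris pH 7.5, MgCl2, EGTA, DTT, vanadate; 1% DMSO. IC50 fitted sigmoidally to % inhibition.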
(Alpha assays give light when donor and acceptor beads are brought close together.)

Data set [4] has as its system KMS12-BM (NIK WT) multiple myeloma cells. Briefly: Antiproliferative activity on KMS12-BM multiple myeloma cells (CellTiter-Glo, 96 hr), Biological Assay C. Format: cell-based, human. To be noted: Homo sapiens, KMS-12-BM, 96 h, averaged values, read-out: KMS-12 Proliferation inhibition (IC50 (nM)). Put shortly: as §1
In general terms: ATP-based viability assays read luminescence as a measure of living cells.

Each structure is given as a SMILES string. Where only a bound is given, the exact number is not on record here.

For 27 compounds, IC50 and melting point results are on record in patent US11180487B2, “Substituted cyanoindoline derivatives as NIK inhibitors” (Janssen Pharmaceutica NV, priority 2016, dated 2021).

Chain of recombinant human NF-kappaB-inducing kinase (NIK/MAP3K14) (Q99558 whole entry): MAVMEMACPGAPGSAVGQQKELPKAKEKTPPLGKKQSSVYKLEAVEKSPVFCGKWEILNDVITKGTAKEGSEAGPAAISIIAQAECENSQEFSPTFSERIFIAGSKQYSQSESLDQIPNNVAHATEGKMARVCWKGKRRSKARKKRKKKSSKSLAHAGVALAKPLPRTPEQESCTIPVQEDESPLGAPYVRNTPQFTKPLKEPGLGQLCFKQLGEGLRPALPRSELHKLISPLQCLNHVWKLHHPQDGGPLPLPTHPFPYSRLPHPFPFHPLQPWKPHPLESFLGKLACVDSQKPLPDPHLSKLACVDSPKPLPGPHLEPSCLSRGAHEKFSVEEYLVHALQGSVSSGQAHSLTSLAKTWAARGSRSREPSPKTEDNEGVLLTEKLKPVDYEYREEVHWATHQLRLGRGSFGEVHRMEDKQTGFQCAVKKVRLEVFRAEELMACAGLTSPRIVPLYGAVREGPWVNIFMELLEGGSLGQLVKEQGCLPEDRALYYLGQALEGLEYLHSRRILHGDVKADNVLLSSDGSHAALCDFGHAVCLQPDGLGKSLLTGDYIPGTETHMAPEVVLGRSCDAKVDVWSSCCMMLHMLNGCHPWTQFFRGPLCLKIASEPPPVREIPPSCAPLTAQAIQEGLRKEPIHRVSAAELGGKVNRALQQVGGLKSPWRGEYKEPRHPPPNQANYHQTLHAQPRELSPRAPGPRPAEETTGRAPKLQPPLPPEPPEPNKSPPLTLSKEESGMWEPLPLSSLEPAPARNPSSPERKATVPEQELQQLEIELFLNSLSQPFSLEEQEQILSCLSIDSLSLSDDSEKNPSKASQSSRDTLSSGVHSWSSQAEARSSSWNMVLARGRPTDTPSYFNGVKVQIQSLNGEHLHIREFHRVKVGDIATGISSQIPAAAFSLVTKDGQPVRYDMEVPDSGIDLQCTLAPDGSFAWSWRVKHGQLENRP

For orientation: melting point means the temperature of the solid-liquid transition. For the compound `Cc1cc(-c2cnn(C)c2)c(C#N)cc1Nc1nccc(-c2cc(C#N)c3c(c2)[C@@](C)(CO)CN3)n1` [Compound 188], the melting point is 190 °C. The IC50 in data set [1] came to 5.4 nM. In addition, the IC50 in data set [2] came out at 54 nM. Moreover, in data set [3], the IC50 worked out at 2.6 nM. Moreover, in data set [4], the IC50 was above 10000 nM.
The matching figures for `Cc1ccc(C2CCN(C)CC2)cc1Nc1nccc(-c2cc(C#N)c3c(c2)[C@@](C)(CO)CN3)n1` [Compound 192]: 250 °C, 2950 nM, 1180 nM, 72.4 nM and 537 nM.
The matching figures for `Cc1c(CO)cc(C#N)cc1Nc1nccc(-c2cc(C#N)c3c(c2)[C@@](C)(CO)CN3)n1` [Compound 193]: 188 °C, 1.7 nM, 22 nM, 1.6 nM and above 10000 nM.
`Cc1c(CN2CC(C)OC(C)C2)cc(C#N)cc1Nc1nccc(-c2cc(C#N)c3c(c2)[C@@](C)(CO)CN3)n1` (stereo partly drawn) [Compound 194] displayed a melting point of 193 °C. For the same compound, the IC50 in data set [1] came to 1.4 nM. In addition, the IC50 in data set [2] was 17 nM. For the same compound, the IC50 in data set [3] is 3.6 nM. In data set [4], the IC50 worked out at 479 nM.
On the same counts, the results for `Cc1c(CN2CC(F)C2)cc(C#N)cc1Nc1nccc(-c2cc(C#N)c3c(c2)[C@@](C)(CO)CN3)n1` [Compound 195] are 210 °C, 1.9 nM, 30 nM, 6.2 nM and around 3720 nM.
The matching figures for `Cc1c(CN2CC(F)(F)C2)cc(C#N)cc1Nc1nccc(-c2cc(C#N)c3c(c2)[C@@](C)(CO)CN3)n1` [Compound 196]: 240 °C, 1 nM, 14 nM, 7.8 nM and above 10000 nM.
As for `Cc1c(CN2CC(C)OC(C)C2)cccc1Nc1nccc(-c2cc(C#N)c3c(c2)[C@@](C)(CO)CN3)n1` (stereo partly drawn) [Compound 197], the melting point stood at 223 °C. Moreover, in data set [1], the IC50 amounted to 4.8 nM. Also, in data set [2], the IC50 worked out at 33 nM. For the same compound, the IC50 in data set [3] turned out to be 6 nM. In addition, the IC50 in data set [4] was around 240 nM.
As to `[2H]C([2H])(c1cccc(Nc2nccc(-c3cc(C#N)c4c(c3)[C@@](C)(CO)CN4)n2)c1C)N1CC(C)OC(C)C1` (stereo partly drawn) [Compound 198], the melting point is 222 °C. For the same compound, the IC50 in data set [1] worked out at 5.6 nM. Besides, in data set [2], the IC50 amounted to 63 nM. In addition, in data set [3], the IC50 stood at 4.6 nM. For the same compound, the IC50 in data set [4] was around 550 nM.
On the same counts, the results for `Cc1c(Nc2nccc(-c3cc(C#N)c4c(c3)[C@@](C)(CO)CN4)n2)cccc1C(=O)N1CC(C)OC(C)C1` (stereo partly drawn) [Compound 199] are 170 °C, 7.4 nM, 76 nM, 6.9 nM and above 10000 nM.
Turning to `COC(=O)c1cc(C#N)cc(Nc2nccc(-c3cc(C#N)c4c(c3)[C@@](C)(CO)CN4)n2)c1C` [Compound 200], the melting point was determined as 260 °C. Further, the IC50 in data set [1] is around 0.66 nM. For the same compound, in data set [2], the IC50 amounted to 41 nM. Moreover, the IC50 in data set [3] was 1.7 nM. For the same compound, the IC50 in data set [4] was above 10000 nM.
The matching figures for `Cc1c(Nc2nccc(-c3cc(C#N)c4c(c3)[C@@](C)(CO)CN4)n2)cc(C#N)cc1C(=O)N1CCN(C)CC1` [Compound 203]: 294 °C, 1.8 nM, 14 nM, 6.6 nM and around 5890 nM.
As to `[2H]C([2H])([2H])N1CCN(C(=O)c2cc(C#N)cc(Nc3nccc(-c4cc(C#N)c5c(c4)[C@@](C)(CO)CN5)n3)c2C)CC1` [Compound 204], the melting point was 297 °C. Moreover, the IC50 in data set [1] amounted to 1.5 nM. Moreover, the IC50 in data set [2] turned out to be 14 nM. Further, the IC50 in data set [3] was 6.2 nM. Besides, in data set [4], the IC50 was around 3980 nM.
Compound `[2H]C1([2H])OC([2H])([2H])C([2H])([2H])N(C(=O)c2cccc(Nc3nccc(-c4cc(C#N)c5c(c4)[C@@](C)(CO)CN5)n3)c2C)C1([2H])[2H]` [Compound 205] had a melting point of 201 °C. Besides, the IC50 in data set [1] was determined as 11.2 nM. In addition, the IC50 in data set [2] was found to be 162 nM. For the same compound, the IC50 in data set [3] was determined as 6 nM. Moreover, in data set [4], the IC50 is above 10000 nM.
With `Cc1c(Nc2nccc(-c3cc(C#N)c4c(c3)[C@@](C)(CO)CN4)n2)cccc1C(=O)N1CCN(C2COC2)CC1` [Compound 207], the melting point is 268 °C. In data set [1], the IC50 is 13.2 nM. Also, the IC50 in data set [2] stood at 66 nM. Besides, the IC50 in data set [3] worked out at 5 nM. The IC50 in data set [4] is around 9550 nM.
In turn, `C[C@]1(CO)CNc2c(C#N)cc(-c3ccnc(Nc4cc(CO)c(F)cc4OC4CC4)n3)cc21` [Compound 208] had a melting point of 234 °C. Further, the IC50 in data set [1] is 10.7 nM. Further, the IC50 in data set [2] is 389 nM. In addition, in data set [3], the IC50 came out at 6.5 nM. Further, the IC50 in data set [4] was above 10000 nM.
The matching figures for `C[C@]1(CO)CNc2c(C#N)cc(-c3ccnc(Nc4cc(C#N)c(F)cc4OC4CC4)n3)cc21` [Compound 209]: 254 °C, 14.8 nM, 132 nM, 14.5 nM and above 10000 nM.
For the compound `Cc1ccc(C#N)cc1Nc1ncnc(-c2cc(C#N)c3c(c2)[C@@](C)(CO)CN3)n1` [Compound 213], the melting point amounted to 304 °C. Further, the IC50 in data set [1] amounted to 5 nM. Moreover, in data set [2], the IC50 was 1070 nM. Besides, the IC50 in data set [3] turned out to be 4.2 nM. For the same compound, the IC50 in data set [4] is above 10000 nM.
Consider `COCCNCc1ccc(C)c(Nc2nccc(-c3cc(C#N)c4c(c3)[C@@](C)(CO)CN4)n2)c1` [Compound 217], for which the melting point is 151 °C. In addition, the IC50 in data set [1] stood at 107 nM. For the same compound, in data set [2], the IC50 was 4270 nM. The IC50 in data set [3] was found to be 9.8 nM. Besides, the IC50 in data set [4] was around 7940 nM.
The matching figures for `Cc1ccc(CN2CC(F)C2)cc1Nc1nccc(-c2cc(C#N)c3c(c2)[C@@](C)(CO)CN3)n1` [Compound 220]: 140 °C, 72.4 nM, 4570 nM, 10.2 nM and above 10000 nM.
Take `CN1CCC(Oc2ccc(C#N)cc2Nc2nccc(-c3cc(C#N)c4c(c3)[C@@](C)(CO)CN4)n2)CC1` [Compound 223]: the melting point was found to be 129 °C. Besides, in data set [1], the IC50 was found to be 3.1 nM. Also, the IC50 in data set [2] worked out at 23 nM. The IC50 in data set [3] came to 1.6 nM. Besides, in data set [4], the IC50 was around 851 nM.
As to `C[C@]1(CO)CNc2c(C#N)cc(-c3ccnc(Nc4cc(C#N)ccc4CN4CCOCC4)n3)cc21` [Compound 224], the melting point came out at 238 °C. Moreover, the IC50 in data set [1] was determined as 83.2 nM. Moreover, the IC50 in data set [2] stood at 3240 nM. Besides, in data set [3], the IC50 was 14.1 nM. Besides, the IC50 in data set [4] was above 10000 nM.
In the case of `C[C@]1(CO)CNc2c(C#N)cc(-c3ccnc(Nc4cc(C#N)ccc4CNC4CC4)n3)cc21` [Compound 225], the melting point worked out at 181 °C. For the same compound, in data set [1], the IC50 turned out to be 19.5 nM. Also, in data set [2], the IC50 was determined as 195 nM. Also, in data set [3], the IC50 was found to be 20 nM. Also, the IC50 in data set [4] is above 10000 nM.
As for `CN1CCN(Cc2ccc(C#N)cc2Nc2nccc(-c3cc(C#N)c4c(c3)[C@@](C)(CO)CN4)n2)CC1` [Compound 226], the melting point was found to be 298 °C. Also, the IC50 in data set [1] was 33.1 nM. The IC50 in data set [2] is 74 nM. Also, in data set [3], the IC50 was 4.3 nM. Also, the IC50 in data set [4] is above 10000 nM.
On the same counts, the results for `C[C@]1(CO)CNc2c(C#N)cc(-c3ccnc(Nc4cc(C#N)ccc4CN4CC(F)(F)C4)n3)cc21` [Compound 227] are 223 °C, 32.4 nM, 96 nM, 7.9 nM and around 3160 nM.
`CC1(CO)CNc2c(C#N)cc(-c3ccnc(Nc4cc(C#N)ccc4CN4CC(F)C4)n3)cc21` (stereo not drawn) [Compound 228]: the melting point was found to be 170 °C. Besides, the IC50 in data set [1] amounted to 19.5 nM. Besides, the IC50 in data set [2] was determined as 120 nM. Also, the IC50 in data set [3] amounted to 5.4 nM. For the same compound, the IC50 in data set [4] was above 10000 nM.
In the case of `C[C@]1(CO)CNc2c(C#N)cc(-c3ccnc(Nc4cc(C#N)ccc4CCN4CC(F)C4)n3)cc21` [Compound 229], the melting point was 207 °C. The IC50 in data set [1] is 22.4 nM. The IC50 in data set [2] worked out at 251 nM. Further, the IC50 in data set [3] came to 7.6 nM. The IC50 in data set [4] was above 10000 nM.
In turn, `Cc1ccc(OCCNC2CC2)c(Nc2nccc(-c3cc(C#N)c4c(c3)[C@@](C)(CO)CN4)n2)c1` [Compound 235] registered a melting point of 133 °C. The IC50 in data set [1] came to 60.3 nM. In addition, in data set [2], the IC50 worked out at 457 nM. Further, the IC50 in data set [3] was determined as 3.9 nM. For the same compound, the IC50 in data set [4] was determined as 2690 nM.
